Common to all, as to format: cell-based
Test [1] deals with Wnt activity (Sp5-Luc reporter, SW480 colon carcinoma cells). In words: Screening assay for Wnt activity: Sp5-Luc reporter gene assay in SW480 cells. Particulars: Homo sapiens; for inhibition at 10 µM: 10 μM compound, read-out: percent inhibition at 10 μM (given for EC50 of >10 μM); for EC50: overnight incubation, 10-point dose-response from 10 μM. In short, it runs like this: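 SW480 cells stably carrying Sp5-Luc reporter (eight TCF/LEF sites) plated at 4,000/well in 1% FBS medium with compound (10-point 1:3 series from 10 μM, 0.1% DMSO) overnight at 37 °C. BrightGlo luminescence normalized to DMSO; EC50 by four-parameter fit, else % inhibition at 10 μM.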
A general note: In a reporter assay the amount or activity of a reporter protein is the signal.

For a further test, the system named is SW480 colon cancer cells. Kind of test: Cell viability assay (CellTiter-Blue), four days. Conditions: Homo sapiens, 96 h; for EC50: CellTiter-Blue cell viability; for inhibition at 10 µM: read-out: percent inhibition at 10 μM (given for EC50 of >10 μM). In short, it runs like this:
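SW480 cells (~2×10^3 per well) were exposed to compound for four days at 37 °C/5% CO2, using 8-point 1:3 dilutions from 10 μM to 0.0045 μM in duplicate. Viability was read by resazurin reduction (CellTiter-Blue, ~3 h, Ex 560/Em 590 nm). EC50 came from non-linear regression; above 10 μM, percent inhibition at 10 μM is given.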
For orientation: The colour change of resazurin is a common sign of viable cells or microbes.

The test system of a further test is IL-6 (THP-1 cells). In words: Inhibition of IL-6 in LPS-stimulated THP-1 monocytes (HTRF). Conditions: Homo sapiens; for EC50: LPS 500 ng/mL, IL-6 by HTRF; for inhibition at 10 µM: LPS stimulated, IL-6, at 10 μM, read-out: percent inhibition at 10 μM (given for EC50 of >10 μM). The method in brief: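 THP-1 cells, serum-starved in 1% FBS for 24 h, were pre-incubated 2 h with compound (10-point, 1:3 from 10 μM, 0.1% DMSO), then stimulated with 500 ng/mL LPS for 22 h at 37 °C. IL-6 was quantified by HTRF 665/620 ratio. EC50 was fitted from DMSO-normalized data; above 10 μM, % inhibition at 10 μM is given.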
(Time-resolved FRET reads energy transfer from a long-lived donor to a nearby acceptor.)

A word on the inhibition: it is the relative decrease from the control value, in per cent. For orientation: EC50 means the concentration at which the effect is half-maximal. A higher EC50 goes with a need for much substance. Take `O=C(Nc1cncc(-c2ccc3[nH]nc(-c4nc5c(-c6cccc(F)c6)ccnc5[nH]4)c3n2)c1)C1CC1` [Compound 20, N-(5-(3-(7-(3-Fluorophenyl)-3H-imidazo[4,5-b]pyridin-2-yl)-1H-pyrazolo [4,3-b]pyridin-5-yl)pyridin-3-yl)cyclopropanecarboxamide]: the inhibition at 10 µM in test [1] was 51.2%; with SW480 colon cancer cells it was 2.8%; in the test on IL-6 (THP-1 cells) it was 16%. Moreover, the EC50 (in test [1]; in the test with SW480 colon cancer cells; with IL-6 (THP-1 cells)) was greater than 10 µM each time.

Take `CN(C)CCNc1cc(F)cc(-c2ccnc3[nH]c(-c4n[nH]c5ccc(-c6ccccn6)nc45)nc23)c1` [Compound 476, N^1-(3-Fluoro-5-(2-(5-(pyridin-2-yl)-1H-pyrazolo[4,3-b]pyridin-3-yl)-3H-imidazo[4,5-b]pyridin-7-yl)phenyl)-N^2,N^2-dimethylethane-1,2-diamine]: the inhibition at 10 µM in test [1] was 15.5%; in the test on IL-6 (THP-1 cells) it was 33%. For the same compound, the EC50 in test [1] was greater than 10 µM; in the test on SW480 colon cancer cells, 9.02 µM; in the test with IL-6 (THP-1 cells) it was greater than 10 µM.

Consider `Oc1cncc(-c2ccc3[nH]nc(-c4nc5c(-c6cccnc6)ccnc5[nH]4)c3n2)c1` [Compound 565, 5-(3-(7-(Pyridin-3-yl)-3H-imidazo[4,5-b]pyridin-2-yl)-1H-pyrazolo[4,3-b]pyridin-5-yl)pyridin-3-ol], for which the inhibition at 10 µM in test [1] stood at 14.1%; in the test on SW480 colon cancer cells it was 5.9%. For the same compound, the EC50 in test [1] was greater than 10 µM; with SW480 colon cancer cells it was greater than 10 µM; with IL-6 (THP-1 cells) it was 9.48 µM.

For `O=C(Cc1ccccc1)Nc1cncc(-c2ccc3[nH]nc(-c4nc5c(-c6ccncc6)ccnc5[nH]4)c3n2)c1` [Compound 122, 2-phenyl-N-(5-(3-(7-(pyridin-4-yl)-3H-imidazo[4,5-b]pyridin-2-yl)-1H-pyrazolo[4,3-b]pyridin-5-yl)pyridin-3-yl)acetamide], the inhibition at 10 µM in test [1] worked out at 8.4%; in the test with SW480 colon cancer cells, 4.4%; in the test with IL-6 (THP-1 cells) it was 27%. Besides, the EC50 (in test [1]; with SW480 colon cancer cells; with IL-6 (THP-1 cells)) was greater than 10 µM throughout.

Take `Cc1cn(-c2ccnc3[nH]c(-c4n[nH]c5ccc(-c6cncc(N7CC(N)C7)n6)nc45)nc23)cn1` [Compound 622, 1-(6-(3-(7-(4-Methyl-1H-imidazol-1-yl)-3H-imidazo[4,5-b]pyridin-2-yl)-1H-pyrazolo[4,3-b]pyridin-5-yl)pyrazin-2-yl)azetidin-3-amine]: the inhibition at 10 µM in test [1] came out at 9.8%; in the test on SW480 colon cancer cells it was 4.7%. In addition, the EC50 was greater than 10 µM in test [1], greater than 10 µM in the test on SW480 colon cancer cells and 0.92 µM in the test on IL-6 (THP-1 cells).

As to `CS(=O)(=O)NCc1cc(F)cc(-c2ccnc3[nH]c(-c4n[nH]c5ccc(-c6cncnc6)nc45)nc23)c1` [Compound 503, N-(3-Fluoro-5-(2-(5-(pyrimidin-5-yl)-1H-pyrazolo[4,3-b]pyridin-3-yl)-3H-imidazo[4,5-b]pyridin-7-yl)benzyl)methanesulfonamide], the values for the inhibition at 10 µM (in test [1]; in the test with SW480 colon cancer cells; in the test with IL-6 (THP-1 cells)) were 14.1%, 0.9% and 29.6%, respectively. The EC50 (in test [1]; in the test with SW480 colon cancer cells; in the test on IL-6 (THP-1 cells)) was greater than 10 µM in each case.

On to `c1cc(-c2ccnc3[nH]c(-c4n[nH]c5ccc(-c6cnccn6)nc45)nc23)ccn1` [Compound 584, 5-(Pyrazin-2-yl)-3-(7-(pyridin-4-yl)-3H-imidazo[4,5-b]pyridin-2-yl)-1H-pyrazolo[4,3-b]pyridine], for which the inhibition at 10 µM in test [1] was found to be 8.5%; in the test with SW480 colon cancer cells it was 10.8%; in the test on IL-6 (THP-1 cells), 22%. Also, the EC50 (in test [1]; in the test on SW480 colon cancer cells; with IL-6 (THP-1 cells)) was greater than 10 µM in each case.

For `Fc1cccc(-c2ccnc3[nH]c(-c4n[nH]c5ccc(-c6cn[nH]c6)nc45)nc23)c1` [Compound 507, 3-(7-(3-fluorophenyl)-3H-imidazo[4,5-b]pyridin-2-yl)-5-(1H-pyrazol-4-yl)-1H-pyrazolo[4,3-b]pyridine], the inhibition at 10 µM in test [1] is 17%; in the test with SW480 colon cancer cells, 0%; in the test on IL-6 (THP-1 cells), 35.9%. Also, the EC50 (in test [1]; with SW480 colon cancer cells; in the test on IL-6 (THP-1 cells)) was greater than 10 µM each time.

With `CS(=O)(=O)NCc1cc(F)cc(-c2ccnc3[nH]c(-c4n[nH]c5ccc(-c6cncc(NC(=O)c7ccccc7)c6)nc45)nc23)c1` [Compound 487, N-(5-(3-(7-(3-Fluoro-5-(methylsulfonamidomethyl)phenyl)-3H-imidazo[4,5-b]pyridin-2-yl)-1H-pyrazolo[4,3-b]pyridin-5-yl)pyridin-3-yl)benzamide], the inhibition at 10 µM in test [1] stood at 7.1%; in the test on SW480 colon cancer cells, 0.6%; in the test on IL-6 (THP-1 cells), 0%. For the same compound, the EC50 (in test [1]; with SW480 colon cancer cells; with IL-6 (THP-1 cells)) was greater than 10 µM throughout.

For the compound `Fc1ccc(-c2ccnc3[nH]c(-c4n[nH]c5ccc(-c6cncnc6)nc45)nc23)cc1` [Compound 55, 3-(7-(4-Fluorophenyl)-3H-imidazo[4,5-b]pyridin-2-yl)-5-(pyrimidin-5-yl)-1H-pyrazolo[4,3-b]pyridine], the inhibition at 10 µM in test [1] turned out to be 20.2%; in the test with IL-6 (THP-1 cells), 43.9%. In addition, the EC50 in test [1] is greater than 10 µM; in the test on SW480 colon cancer cells, 0.171 µM; in the test on IL-6 (THP-1 cells), greater than 10 µM.

Turning to `Fc1cccc(-c2ccnc3[nH]c(-c4n[nH]c5ccc(-c6ccncc6)nc45)nc23)c1` [Compound 18, 3-(7-(3-fluorophenyl)-3H-imidazo[4,5-b]pyridin-2-yl)-5-(pyridin-4-yl)-1H-pyrazolo[4,3-b]pyridine], the values for the inhibition at 10 µM (in test [1]; with SW480 colon cancer cells; in the test with IL-6 (THP-1 cells)) were 21%, 0% and 18.4%, respectively. The EC50 (in test [1]; in the test on SW480 colon cancer cells; in the test with IL-6 (THP-1 cells)) was greater than 10 µM in each case.

As to `COc1cncc(-c2ccc3[nH]nc(-c4nc5c(-c6ccoc6)ccnc5[nH]4)c3n2)c1` [Compound 692, 3-(7-(Furan-3-yl)-3H-imidazo[4,5-b]pyridin-2-yl)-5-(5-methoxypyridin-3-yl)-1H-pyrazolo[4,3-b]pyridine], the values for the inhibition at 10 µM (in test [1]; with SW480 colon cancer cells; with IL-6 (THP-1 cells)) were 15.3%, 17.6% and 39%, respectively. Besides, the EC50 (in test [1]; with SW480 colon cancer cells; in the test on IL-6 (THP-1 cells)) was greater than 10 µM throughout.

As to `O=C(Nc1cncc(-c2ccc3[nH]nc(-c4nc5cccnc5[nH]4)c3n2)c1)C1CCCCC1` [Compound 275, N-(5-(3-(3H-Imidazo[4,5-b]pyridin-2-yl)-1H-pyrazolo[4,3-b]pyridin-5-yl)pyridin-3-yl)cyclohexanecarboxamide], the inhibition at 10 µM in test [1] was determined as 3.1%; in the test on SW480 colon cancer cells, 2.6%; in the test on IL-6 (THP-1 cells), 33.1%. Further, the EC50 (in test [1]; in the test with SW480 colon cancer cells; in the test on IL-6 (THP-1 cells)) was greater than 10 µM each time.

Turning to `Cn1cc(-c2ccc3[nH]nc(-c4nc5c(-c6cccs6)ccnc5[nH]4)c3n2)cn1` [Compound 700, 5-(1-Methyl-1H-pyrazol-4-yl)-3-(7-(thiophen-2-yl)-3H-imidazo[4,5-b]pyridin-2-yl)-1H-pyrazolo[4,3-b]pyridine], the inhibition at 10 µM turned out to be 3.4% in test [1], 0.1% in the test on SW480 colon cancer cells and 0% in the test on IL-6 (THP-1 cells). Also, the concentration for a half-maximal effect (EC50) (in test [1]; in the test on SW480 colon cancer cells; with IL-6 (THP-1 cells)) was greater than 10 µM each time.

The values are drawn from US10329309B2, “3-(3H-imidazo[4,5-B]pyridin-2-yl)-1H-pyrazolo[4,3-B]pyridines and therapeutic uses thereof” (Samumed, LLC, priority 2015, dated 2019).
